Laboratory results as given in patent publication US10463710B2, “Short synthetic peptide for the treatment and/or prophylaxis of autoimmune and inflammatory disorders” (MacKay Memorial Hospital, priority 2015, dated 2019).

Key:
Type in all cases: in vivo, BALB/c mice
[1] = test system: IMQ-induced psoriasis-like skin inflammation; experiment: Mouse model of IMQ-induced psoriasis-like skin inflammation
Procedure: All experimental procedures were approved by the Mackay Memorial Hospital Animal Care and Uses Committee and conducted according to national animal welfare regulations. Psoriasis-like skin inflammation was created by treating mouse skin with Imiquimod (IMQ) in accordance with the procedures described by van der Fits et al (J Immunol. (2009), 182, 5836-5845). Accordingly, each BALB/c mice (8 weeks old) received a daily topical dose of 62.5 mg of commercially available IMQ cream (5%) on the shaved back and the right ear for 6 consecutive days; whereas the control mice (normal group) were treated with a control cream. For treatment, 7-mer analogue was mixed with IMQ cream to a concentration 100 μM.
Keratinocyte proliferation was determined by 5-bromo-2′-deoxyuridine (BrdU) incorporation. BrdU (Sigma-Aldrich) was reconstituted in DMSO as a stock solution of 80 mM. 10 μl of BrdU mixed with 90 μl of PBS was intraperitoneally injected into each mouse for 24 hr prior to euthanasia. Back skin was fixed overnight in 4% paraformaldehyde and embedded in paraffin for immunohistochemistry.
In this example, the efficacy of the present synthetic peptides of Example 1 on IMQ-induced psoriasis-like skin inflammation was investigated. To this purpose, animals (8-week-old mice) were given a daily topical dose of IMQ cream on the shaved back for six consecutive days, so as to induce psoriasis-like skin inflammation and desquamation (FIG. 1; left panel).
Psoriasis is a disease resulted from abnormal keratinocyte proliferation, thus the effects of the present synthetic peptides on the proliferation of keratinocytes were also monitored in accordance with procedures described in the section of “Materials and Methods”. Results are illustrated in FIG. 2.

[2] = test system: HOCl-induced skin fibrosis; experiment: Mouse model of HOCl-induced systemic sclerosis (skin fibrosis)
Procedure: Induction of SSc have been successfully established by subcutaneously injection with prooxidative agents (e.g., hypochlorous acid, HOCl) in BALB/c mice every day for 6 weeks (Servettaz A et al., J Immuno. 2009; 182: 5855).
To produce HOCl, 166 μl of NaClO solution (2.6% as active chlorine) was added to 11.1 ml of KH2PO4 solution (100 mM; pH 7.2). The concentration of HOCl was determined by spectrophotometry at 292 nm (molar absorption coefficient 350 M^−1 cm^−1). Female BALB/c mice (6 weeks old) were randomly distributed into experimental and control groups (n=6 per group). A total of 100 μl of HOCl solution mixed with 7-mer vehicle or 7-mer (final concentration 0.2 mM) was injected subcutaneously into the shaved back of the mice, using a 27-gauge needle, every day for 6 wks. Subcutaneous injection of phosphate-buffered saline (PBS) was served as normal control. Mice were euthanized and their skins were harvested, fixed overnight in 4% paraformaldehyde and embedded in paraffin. […]
Approximately 20% skin homogenate was used to determine the levels of soluble collagen. The collagen levels were quantified using a Sircol™ soluble collagen assay (Biocolor Ltd., Newtownabbey) according to the manufacturer's protocols. […] Relative absorbance was measured at 540 nm. […]

[3] = test system: OVA-induced allergic conjunctivitis; experiment: Mouse model of OVA-induced allergic conjunctivitis; conditions: 7-mer 100 μM eye drop twice a day for 4 days, FIG. 5C
Procedure: BALB/c mice (4- to 5-weeks old females) were sensitized intraperitoneally with 1 μg of ovalbumin (OVA) and 200 μl of 1.5% aluminum hydroxide (ALUM) on days 0 and 7, respectively; and then challenged two times topically in the conjunctival sac with 250 μg of OVA respectively on days 15 and 18. Control mice were given OVA with ALUM in sensitization stages, and PBS in place of OVA in challenge stages. For treatment, 7-mer was mixed with 1% CMC eye drop to a concentration 100 μM. After the OVA challenge (day 15), the mice were randomly assigned to two experimental groups (n=6 per group) and the eye was treated with 20 μl of 7-mer or vehicle eye drop twice a day for 4 days (to day 18). Twenty-four hrs after the final challenge with OVA (day 19), mice were euthanized and their eyes were harvested, fixed overnight in 4% paraformaldehyde and embedded in paraffin. To evaluate the eosinophilic infiltration, sections (5 μm) including eyelids were de-paraffinized and stained with acid-giemsa for detection of eosinophils.
Allergic conjunctivitis (AC) is characterized by conjunctival eosinophilic infiltration. […]

CC(=O)N[C@@H](CC(=O)O)C(=O)N[C@@H](CC(C)C)C(=O)N[C@@H](Cc1ccc(O)cc1)C(=O)N[C@@H](CCCNC(=N)N)C(=O)N[C@H](C(=O)N[C@@H](CCCNC(=N)N)C(=O)N[C@@H](CO)C(N)=O)C(C)C [7-mer, NH2-Asp-Leu-Tyr-Arg-Val-Arg-Ser-COOH]
number of BrdU-positive keratinocytes ([1]; 7-mer topically or via intraperitoneal injection, FIG. 2): significantly reduced | level of skin inflammation and desquamation ([1]; topical cream containing IMQ and 7-mer peptide 100 μM, six consecutive days, FIG. 1): reduced significantly | level of dermal collagen (Masson's trichrome) ([2]; 7-mer 0.2 mM s.c. with HOCl daily for 6 wks, vs HOCl/vehicle, FIG. 3A): significant decrease | collagen content of skin ([2]; 7-mer treated SSc mice, HOCl-treated SSc mice 169.9±7.75, FIG. 3B): 99.0±5.43 μg collagen/mg skin | infiltration of eosinophils in the conjunctiva [3]: decreased significantly
